The test system of one data set is Artemia salina. The experiment in a line: Toxicity in Artemia salina. To be noted: in vivo. Format: organism-based.
Data set [1] has as its system Agrobacterium tumefaciens. In words: Antitumor activity against Agrobacterium tumefaciens-induced crown gall tumor in potato tubers by potato disk test. Format: functional.
A short description of data set [2]: In vivo cytotoxicity against mouse 3PS cells at 50 mg/kg relative to control. The format is functional.
A short description of data set [3]: Cytotoxicity against human 9KB cells. Format: functional. To be noted: read-out: ED50 (the source's name).
A short description of data set [4]: Cytotoxicity against mouse 9PS cells. To be noted: read-out: ED50 (the source's name). Format: functional.
The next data set relates to Mus musculus. In words: In vivo cytotoxicity against mouse 3PS cells up to 200 mg/kg relative to control. Format: functional, organism-based. Details: dose 200 mg/kg.

From ChEMBL document CHEMBL1150702, “3,3',5'-Tri-O-methylpiceatannol and 4,3',5'-tri-O-methylpiceatannol: improvements over piceatannol in bioactivity” (J Nat Prod, 1987) come the findings set out here.

SMILES strings stand for the structures. In brackets after ≈: the same amount, converted by molar mass. Activity calls are given as the source filed them. The rule behind the calls is not given here.

`COc1cc(C=O)ccc1O` [VANILLIN]: in the data set with Artemia salina, the LC50 (in general, the concentration that kills 50% of the test population) was determined as 31 ppm.
In the case of `COc1cc(/C=C/c2ccc(OC)c(O)c2)cc(OC)c1`, the “inhibition (INH)” value in data set [1] came to 22%. The T/C (usually the result in the treated group divided by that in the control group, in per cent) in data set [2] is 119%. The same compound came in with an LC50 with Artemia salina of 2.8 ppm. The EC50 in data set [3] is below 0.01 µg/mL; in data set [4], 0.1 µg/mL (≈ 0.349 µM).
For the compound `COc1ccc(C=O)cc1O` [ISOVANILLIN], the median lethal concentration (LC50) in the data set on Artemia salina is listed as 31 ppm.
With `COc1cc(/C=C/c2ccc(O)c(OC)c2)cc(OC)c1`, the outcome in the data set on Mus musculus was inactive. In addition, the “inhibition (INH)” value in data set [1] amounted to 19%. In the data set with Artemia salina, this compound showed an LC50 above 1000 ppm. Moreover, the EC50 in data set [3] was 0.25 µg/mL (≈ 0.873 µM).
In turn, `Oc1cc(O)cc(/C=C/c2ccc(O)c(O)c2)c1` [PICEATANNOL] came in with an LC50 with Artemia salina of 278 ppm.
